Read-outs that look alike come from different tables or passages of the source.
Columns and labels:
human CBG = target: human CBG; design: method as in PMID 20631013; conditions: 37°C, fluorescence measurements; cited from earlier work
uncleaved human CBG = target: uncleaved human CBG; design: method as in PMID 21325280; conditions: cited from earlier work
Cleaved human CBG-WT [1] = target: T1, Cleaved human CBG-WT (Homo sapiens, UniProt P08185, K148A); assay: Isothermal titration calorimetry, steroid titrated to neutrophil elastase-cleaved human CBG-WT; assay type: binding; conditions: ITC, 25°C
T1 construct: residues 11 to 383 of human CBG (Swiss-Prot entry P08185); GST (N, cleaved yes); made in house; host or cells: E. coli BL21 Star (DE3)
T1 sequence (P08185 33-366 K148A): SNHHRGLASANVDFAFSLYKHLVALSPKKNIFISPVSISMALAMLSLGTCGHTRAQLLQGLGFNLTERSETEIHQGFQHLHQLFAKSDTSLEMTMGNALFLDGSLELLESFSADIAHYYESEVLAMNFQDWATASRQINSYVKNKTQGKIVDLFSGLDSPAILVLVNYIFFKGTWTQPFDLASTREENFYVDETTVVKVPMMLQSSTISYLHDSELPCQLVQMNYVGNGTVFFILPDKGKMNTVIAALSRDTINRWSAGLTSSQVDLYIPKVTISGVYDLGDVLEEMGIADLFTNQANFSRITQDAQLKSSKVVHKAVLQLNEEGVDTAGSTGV
T1 sequence (P08185 367-405): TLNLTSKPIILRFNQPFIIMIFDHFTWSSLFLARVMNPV
Experimental: (§1) Cleavage of the RCL in human and rat CBG mutants was accomplished with 100 mU human neutrophil elastase (Sigma-Aldrich) per mg purified CBG at 30°C and monitored by SDS-PAGE. The cleavage reaction was stopped with AEBSF. The protein samples were dialyzed against ITC buffer (20 mM potassium phosphate, 50 mM NaCl, pH 7.4) and titrated with steroids in a VP-ITC microcalorimeter (Microcal, Piscataway). All solutions were filtered (0.2 µm filter pore size) and degassed for 30 min prior to the titration experiments. The sample cell was filled with protein solution containing 15 µM rat CBG or 20 µM human CBG and titrated with steroid solutions containing 150 µM and 200 µM ligand, respectively. The titrations consisted of an initial injection of 2 µL followed by 25 consecutive injections of 10 µL ligand solution at 25°C. A spacing of 240 sec between the injections was used to allow a return to the baseline. Data points from the initial injection, which are generally affected by diffusion during the initial equilibration period after experiment setup, were discarded prior to data analysis. […] The binding curve was generated by plotting the heats of injections against the ratio of ligand to protein in the cell. Integrated heat data were analyzed using nonlinear regression fit with a one-site-binding model in the Origin-7™ software provided with the VP-ITC. Changes in the free energy and entropy can be calculated using the equation: ΔG° = −RTlnK = ΔH°−TΔS°. In this equation ΔG° is the change in Gibbs free energy, R the universal gas constant, T the temperature, and K the association constant. The change in enthalpy is denoted as ΔH°, and ΔS° is the change in entropy under standard conditions. The data shown in Table 2 were obtained from single titrations of each complex.

Cleaved human CBG-WT [2] = assay: as above; assay type: binding; conditions: human CBG, uncleaved vs neutrophil elastase-cleaved, ITC 25°C
Experimental: as §1

Structure (SMILES): C[C@]12CCC(=O)C=C1CC[C@@H]1[C@@H]2[C@@H](O)C[C@@]2(C)[C@H]1CC[C@]2(O)C(=O)CO [Hydrocortisone]
- Kd (human CBG): 18 nM
- Kd (uncleaved human CBG; 22°C, uncleaved human CBG, fluorescence titration, read-out: binding affinity): 26.9 nM
- Kd (uncleaved human CBG; 37°C, uncleaved human CBG-WT, read-out: K d 37°C): 292 ± 19 nM
- TΔS° (Cleaved human CBG-WT [1]; cleaved human CBG-WT): -18.7 kcal/mol
- ΔG° (Cleaved human CBG-WT [1]; cleaved human CBG-WT): -8.68 kcal/mol
- ΔH° (Cleaved human CBG-WT [1]; cleaved human CBG-WT): -27.41 kcal/mol
- Kd (Cleaved human CBG-WT [1]; single titration, elastase-cleaved human CBG-WT): 442 ± 10 nM
- reduction in binding affinity upon RCL cleavage (Cleaved human CBG-WT [2]): ten-fold

— article PMC3530532, “Corticosteroid-Binding Globulin: Structure-Function Implications from Species Differences” (PLoS ONE, 2012)
